Literature values as cited in patent US20190070136A1 (ASPIRO PHARMA LIMITED, priority 2017, published 2019).

## O=NN(CCCl)C(=O)NCCCl [Carmustine, 1,3-bis (2-chloroethyl)-1-nitrosourea]
  Log P: 1.53
